The text below walks through data of ChEMBL document CHEMBL3421553, “Design, synthesis, and biological evaluation of benzoselenazole-stilbene hybrids as multi-target-directed anti-cancer agents” (Eur J Med Chem, 2015).

Data set [1] in a line: Antiproliferative activity against human Bel7402 cells assessed as cell viability after 48 hrs by MTT assay. In kind it is functional, cell-based. Conditions: Bel-7402, 48 h. (Tetrazolium assays rely on reduction of a dye to a coloured formazan, in cell work by metabolically active cells.)
Data set [2] deals with A549. The data set can be described thus: Antiproliferative activity against human A549 cells assessed as cell viability after 48 hrs by MTT assay. Type of data set: functional, cell-based. Conditions: A549, 48 h.
Data set [3] has as its system HeLa. Briefly: Antiproliferative activity against human HeLa cells assessed as cell viability after 48 hrs by MTT assay. Type of data set: functional, cell-based.
Data set [4] concerns MCF7. The data set can be described thus: Antiproliferative activity against human MCF7 cells assessed as cell viability after 48 hrs by MTT assay. Type of data set: functional, cell-based. Conditions: MCF7, 48 h.
The nature of data set [5]: Aqueous solubility of the compound in phosphate buffer at pH 7.4. Type of data set: physicochemical.
For data set [6], the species on record is Rattus norvegicus. Briefly: Inhibition of rat liver TrxR assessed as increase in absorbance at 10 uM by DTNB assay.
Data set [7] can be described thus: Inhibition of rat liver TrxR assessed as increase in absorbance by DTNB assay.
Data set [8] is described as follows: Cell cycle arrest in human Bel7402 cells assessed as cells accumulation at Sub-G1 phase at 50 uM after 48 hrs by flow cytometry (reference value: 1.47%). In kind it is functional, cell-based. The conditions noted are these: Bel-7402. (In general: A flow cytometer gives signals particle by particle.)
Data set [9] in a line: Cell cycle arrest in human Bel7402 cells assessed as cells accumulation at G1 phase at 50 uM after 48 hrs by flow cytometry (reference value: 62.60%). In kind it is functional, cell-based. Conditions: Bel-7402.
Data set [10] is described as follows: Cell cycle arrest in human Bel7402 cells assessed as cells accumulation at S phase at 50 uM after 48 hrs by flow cytometry (reference value: 13.99%). Conditions: Bel-7402. In kind it is functional, cell-based.
Data set [11] is described as follows: Cell cycle arrest in human Bel7402 cells assessed as cells accumulation at G2/M phase at 50 uM after 48 hrs by flow cytometry (reference value: 16.61%). The conditions noted are these: Bel-7402. In kind it is functional, cell-based.
Data set [12] deals with Bel-7402. Briefly: Induction of apoptosis in human Bel7402 cells assessed as detection error cells at 50 uM after 48 hrs by flow cytometry (reference value: 0.43%). In kind it is functional.
Data set [13] concerns Bel-7402. The data set can be described thus: Induction of apoptosis in human Bel7402 cells assessed as necrotic cells at 50 uM after 48 hrs by flow cytometry (reference value: 0.19%). Type of data set: functional.
In data set [14] the test system is Bel-7402. Briefly: Induction of apoptosis in human Bel7402 cells assessed as apoptotic cells at 50 uM after 48 hrs by flow cytometry (reference value: 0.73%). Type of data set: functional.
Data set [15] deals with Bel-7402. Briefly: Induction of apoptosis in human Bel7402 cells assessed as live cells at 50 uM after 48 hrs by flow cytometry (reference value: 98.65%). In kind it is functional.
The species named for data set [16] is Rattus norvegicus. The data set can be described thus: Inhibition of rat liver TrxR assessed as increase in absorbance at 50 uM by DTNB assay.

The structures appear in SMILES notation. Active and inactive are the calls of the source. The rule behind the calls is not given here.

Take `COc1ccc(/C=C/c2ccc(N3Cc4ccccc4C3=O)cc2)cc1OC`: the IC50 in data set [1], in data set [2], in data set [3] and in data set [4] was above 10 µM each time. Moreover, the solubility (usually how much of the substance goes into solution per volume) in data set [5] is below 10 µM. Moreover, in data set [6], the inhibition – broadly, how much of the control response was suppressed – is “inactive”.

Regarding `O=c1c2ccccc2[se]n1-c1ccccc1` [EBSELEN], the IC50 (as a rule, the concentration needed to halve the response being measured) in [1] was 68.2 µM; in data set [2], above 100 µM; in data set [3], 78.5 µM; in [4] it was above 100 µM; in data set [7], 8.54 µM. Moreover, the Activity was 3.32% in [8]; 58.7% in data set [9]; 11.2% in [10]; 21.2% in data set [11]; 0.56% in data set [12]; 0.72% in data set [13]. Besides, the Activity in data set [14] is listed as 7.94%; in [15], 90.8%.

For the compound `COc1cc(/C=C/c2ccc(-n3[se]c4ccccc4c3=O)cc2)cc(OC)c1OC`, the half-inhibitory concentration (IC50) in data set [1] worked out at 1.11 µM; in [2] it was 3.11 µM; in data set [3], 5.67 µM; in [4] it was 3.97 µM; in data set [7], 5.78 µM.

In [5], `COc1cc(/C=C/c2ccc(-n3[se]c4ccc(Cl)cc4c3=O)cc2)cc(OC)c1` returned a solubility below 50 µM. In data set [6], the inhibition amounted to 31.2%.

`COc1cc(/C=C/c2ccc(-n3[se]c4ccccc4c3=O)cc2)cc(OC)c1`: the IC50 in data set [1] came to 3.49 µM; in data set [2], 3.73 µM; in [3], 3.8 µM; in data set [4], 7.78 µM; in [7], 8.27 µM. This compound gave a solubility in data set [5] above 100 µM.

Take `Oc1ccc(/C=C/c2cc(O)cc(O)c2)cc1` [RESVERATROL]: the half-maximal inhibitory concentration (IC50) in data set [1] was 50.7 µM; in data set [2], above 100 µM; in [3] it was 47.9 µM; in data set [4] it was above 100 µM. Also, the inhibition in [16] is 26.1%. For the same compound, the Activity in data set [8] was 0.15%; in data set [9], 59%; in data set [10], 9.83%; in data set [11], 31.2%; in data set [12], 0.03%; in data set [13], 0.01%. Besides, the results for the Activity in data set [14] and in data set [15] were 13.2% and 85.3%, respectively.

Consider `COc1cc(/C=C/c2ccc(-n3[se]c4cc(Cl)ccc4c3=O)cc2)cc(OC)c1`, for which the IC50 was found to be 0.79 µM in data set [1], 0.52 µM in data set [2], 0.23 µM in [3] and 0.47 µM in data set [4]. The compound further registered a solubility in data set [5] below 10 µM. In data set [6], the inhibition amounted to 36.4%.

`COc1cccc(/C=C/c2ccc(-n3[se]c4ccccc4c3=O)cc2)c1`: the IC50 in data set [1] was found to be 13.2 µM; in data set [2], 10.4 µM; in data set [3] it was 7.34 µM; in [4], 9.62 µM; in data set [7], 12.8 µM.

In the case of `COc1cc(/C=C/c2ccc(-n3[se]c4cc(F)ccc4c3=O)cc2)cc(OC)c1`, the IC50 in [1] came to 0.99 µM; in data set [2], 1.22 µM; in data set [3], 0.64 µM; in [4] it was 0.51 µM. Moreover, in data set [5], the solubility was below 10 µM. For the same compound, the inhibition in [6] stood at 36.6%.

Turning to `COc1ccc(/C=C/c2ccc(-n3[se]c4ccc(Cl)cc4c3=O)cc2)cc1OC`, the IC50 in data set [1] came to 6.13 µM; in [2], 6.95 µM; in [3], 12 µM; in data set [4], 16.9 µM. In addition, the solubility in data set [5] was below 20 µM. For the same compound, the inhibition in data set [6] amounted to 38.4%.

As for `COc1cc(/C=C/c2ccc(-n3[se]c4cc(OC)c(OC)cc4c3=O)cc2)cc(OC)c1`, the IC50 in data set [1] was found to be 25.4 µM; in data set [2] it was 52.6 µM; in data set [3], 31.6 µM; in data set [4], 88.9 µM; in data set [7] it was 7.53 µM.

For `COc1cc(/C=C\c2ccc(-n3[se]c4ccccc4c3=O)cc2)cc(OC)c1`, the 50% inhibitory concentration (IC50) in data set [1] is 36.1 µM; in data set [2], 43 µM; in data set [3], 28.4 µM; in data set [4] it was 56.3 µM; in data set [7], 9.62 µM.

`O=c1c2ccccc2[se]n1-c1ccc(/C=C/c2ccccc2)cc1`: the IC50 in [1] worked out at 12.4 µM; in [2] it was 23.8 µM; in data set [3], 35.7 µM; in [4], 24.8 µM. Further, the inhibition in data set [6] was found to be 22.4%.
